Source: publication PMC4072591, “FGFR2 Is Amplified in the NCI-H716 Colorectal Cancer Cell Line and Is Required for Growth and Survival” (PLoS ONE, 2014)

Target: T1, FGFR2 (Homo sapiens, UniProt P21802)
T1 construct: endogenous amplified FGFR2 in NCI-H716 cells
Test: FGFR2 Y653/[…] phosphorylation in NCI-H716 cells, western blot quantitation
Assay type: cell-based

T1 sequence (P21802 22-821): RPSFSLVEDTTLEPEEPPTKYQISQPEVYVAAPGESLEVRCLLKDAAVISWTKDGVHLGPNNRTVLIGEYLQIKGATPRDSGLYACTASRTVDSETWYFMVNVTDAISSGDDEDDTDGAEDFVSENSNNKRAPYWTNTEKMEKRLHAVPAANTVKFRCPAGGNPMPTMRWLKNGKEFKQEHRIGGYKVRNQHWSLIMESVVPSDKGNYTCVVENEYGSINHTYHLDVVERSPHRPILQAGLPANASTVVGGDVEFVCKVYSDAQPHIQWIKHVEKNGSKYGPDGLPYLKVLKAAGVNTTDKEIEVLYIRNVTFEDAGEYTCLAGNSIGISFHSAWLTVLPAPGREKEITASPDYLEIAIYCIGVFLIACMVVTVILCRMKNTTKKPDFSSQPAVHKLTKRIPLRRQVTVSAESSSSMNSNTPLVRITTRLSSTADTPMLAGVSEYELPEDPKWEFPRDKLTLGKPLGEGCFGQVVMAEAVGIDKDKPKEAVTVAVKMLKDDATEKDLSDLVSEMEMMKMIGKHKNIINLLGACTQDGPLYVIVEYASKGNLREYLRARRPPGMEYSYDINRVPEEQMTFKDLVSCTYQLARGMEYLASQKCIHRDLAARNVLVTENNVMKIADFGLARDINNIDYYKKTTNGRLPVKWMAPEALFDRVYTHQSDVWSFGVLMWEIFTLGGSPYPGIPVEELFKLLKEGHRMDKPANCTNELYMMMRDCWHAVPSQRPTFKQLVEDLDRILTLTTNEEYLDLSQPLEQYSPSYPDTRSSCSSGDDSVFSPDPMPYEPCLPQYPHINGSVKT

CN(C[C@@H]1COCCO1)S(=O)(=O)Nc1ccc2ccc3ncc(-c4cnn(C)c4)cc3c(=O)c2c1 [MK2461]
IC50: 165 nM
